Source: US9499493B2, “2,4-pyrimidinediamine compounds and their uses” (Rigel Pharmaceuticals, Inc., priority 2002, dated 2016)

Columns and labels:
[1] = test system: cultured human mast cells (CHMC); experiment: CHMC low cell density ionomycin activation: tryptase assay; type: cell-based
[2] = test system: cultured human mast cells (CHMC); experiment: CHMC low cell density IgE activation: tryptase assay; type: cell-based; details: anti-IgE
In short: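 Cells pelleted, taken up in warm MT, plated at 1000-1500/well, held 1 hr 37° C. Anti-IgE added, 30 min 37° C. Plates spun; supernatant mixed with tryptase substrate, 30 min RT.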

Compound	IC50 [1]	IC50 [2]
CCOC(=O)COc1ccc(Nc2ncc(F)c(Nc3ccc4c(c3)OCCO4)n2)cn1 [R926740, N2-[2-(Ethoxycarbonylmethyleneoxy)pyridin-5-yl]-N4-(3,4-ethylenedioxyphenyl)-5-fluoro-2,4-pyrimidinediamine]	> 10 µM	4.42 µM
COC(=O)COc1ccc(Nc2nc(Nc3ccc(OCC(N)=O)cc3)ncc2F)cc1 [R945060, N2-(4-Aminocarbonylmethyleneoxyphenyl)-5-fluoro-N4-(4-methoxycarbonylmethyleneoxyphenyl)-2,4-pyrimidinediamine]	> 10 µM	0.938 µM
CNC(=O)COc1cccc(Nc2ncc(F)c(Nc3ccc4c(c3)OCCN4C)n2)c1 [R908705, 5-Fluoro-N2-[(N-methylacetamido-2)-3-phenoxy]-N4-(N-methyl-1,4-benzoxazin-7-yl)-2,4-pyrimidinediamine]	> 10 µM	0.801 µM
Fc1cnc(Nc2ccc3oc(CN4CCOCC4)cc3c2)nc1Nc1ccc2c(c1)OCCO2 [R926490, N4-(3,4-Ethylenedioxyphenyl)-5-fluoro-N2-[2-(N-morpholinomethylene)benzofuran-5-yl]-2,4-pyrimidinediamine]	> 10 µM	1.57 µM
COc1cc(-c2ccccc2)c(C)cc1Nc1ncc(C)c(Nc2cc(C)c(-c3ccccc3)cc2OC)n1 [R935003, N2,N4-Bis[(4-phenyl-2-methoxy-5-methyl)phenyl]-5-methyl-2,4-pyrimidinediamine]	> 10 µM	> 10 µM
CCOC(=O)COc1ccc(Nc2nc(Nc3ccc(OCC(=O)OCC)cc3)c(NC(=O)NC3CCCC3)c(C(=O)OCC)n2)cc1 [R926588, N2,N4-Bis(4-ethoxycarbonylmethyleneoxyphenyl)-6-ethoxycarbonyl-5-(cyclopentylaminocarbonylamino)-2,4-pyrimidinediamine]	> 10 µM	7.85 µM
CN(C)CCOc1ccc(Nc2ncc(F)c(Nc3cccc(O)c3)n2)cc1 [R909236, N2-[4-(2-N,N-Dimethylamino)ethoxyphenyl]-5-fluoro-N4-(3-hydroxyphenyl)-2,4-pyrimidinediamine]	> 10 µM	0.996 µM
Cn1ncc2cc(Nc3ncc(F)c(Nc4ccc(OC(F)(F)F)c(Cl)c4)n3)ccc21 [R935359, N4-(3-chloro-4-trifluoromethoxyphenyl)-5-fluoro-N2-(1-methylindazoline-5-yl)-2,4-pyrimidinediamine]	> 10 µM	1.03 µM
CC(C)c1cccc(Nc2nc(Nc3ccc4oc(CO)cc4c3)ncc2F)c1 [R940286, 5-Fluoro-N4-(3-isopropylphenyl)-N2-[(2-hydroxymethylene]benzofur-5-yl]-2,4-pyrimidinediamine]	7.08 µM	0.337 µM
Fc1cnc(Nc2ccc3cn[nH]c3c2)nc1Nc1ccc2cn[nH]c2c1 [R935188, N2,N4-Bis(indazolin-6-yl)-5-fluoro-2,4-pyrimidinediamine]	> 10 µM	0.239 µM
CNC(=O)CCn1ncc2cc(Nc3ncc(F)c(Nc4cccc(OC(F)(F)F)c4)n3)ccc21 [R935361, 5-Fluoro-N2-[1-[2(N-methylaminocarbonyl)ethyl]indazoline-5-yl]-N4-(3-trifluoromethoxyphenyl)-2,4-pyrimidinediamine]	> 10 µM	1.44 µM
O=[N+]([O-])c1ccc(NCCO)c(Nc2ncc(F)c(Nc3cc([N+](=O)[O-])ccc3NCCO)n2)c1 [R950150, N2,N4-Bis(2-hydroxyethyleneamino-5-nitrophenyl)-5-fluoro-2,4-pyrimidinediamine]	> 10 µM	> 10 µM
CNC(=O)c1cc2cccc(Nc3ncc(F)c(Nc4ccc5c(c4)OCCO5)n3)c2[nH]1 [R926815]	> 10 µM	1.18 µM
CCOC(=O)c1cnc(Nc2ccc(OCC(=O)OC)cc2)nc1Nc1ccc(OCC(=O)OC(C)(C)C)cc1 [R926579, N4-(4-tert-Butoxycarbonylmethyleneoxyphenyl)-5-ethoxycarbonyl-N2-(4-methoxycarbonylmethyleneoxyphenyl)-2,4-pyrimidinediamine]	> 10 µM	> 10 µM
CN(C)C(=O)c1cc2cc(Nc3ncc(F)c(Nc4cccc(O)c4)n3)ccc2o1 [R926718, 5-Fluoro-N4-(3-hydroxyphenyl)-N2-[2-(N-dimethylamino)carbonylbenzofuran-5-yl]-2,4-pyrimidinediamine]	> 10 µM	1.83 µM
CNCc1cccc(Nc2nc(Nc3cccc(OCC(=O)NC)c3)ncc2F)c1 [R940317, N4-(3-N-methylaminomethylenephenyl)-5-fluoro-N2-[3-(methylaminocarbonylmethyleneoxy)phenyl]-2,4-pyrimidinediamine]	> 10 µM	0.913 µM
CNCCNC(=O)c1cc2cc(Nc3ncc(F)c(Nc4ccc5oc(C(=O)NCCNC)cc5c4)n3)ccc2o1 [R950170, N2,N4-Bis[2-[2-(methylamino)ethyleneaminocarbonyl]-benzofurane-5-yl]-5-fluoro-2,4-pyrimidinediamine]	> 10 µM	> 10 µM

Compound	IC50 [1]	IC50 [2]
Fc1cnc(Nc2ccc3[nH]ncc3c2)nc1Nc1ccc2c(c1)OCCO2 [R935198, N4-(3,4-Ethylenedioxyphenyl)-5-fluoro-N2-(indazoline-5-yl)-2,4-pyrimidinediamine]	> 10 µM	0.126 µM
CC(C)Oc1ccc(Nc2nc(Nc3ccc(OCc4nc(-c5ccccc5)no4)cc3)ncc2F)cc1 [R935135, 5-Fluoro-N4-(4-isopropoxyphenyl)-N2-[4-(3-phenyl-1,2,4-oxadiazol-5-yl)methyleneoxyphenyl]-2,4-pyrimidinediamine]	> 10 µM	10 µM
NC(=O)COc1ccc(Nc2nc(Nc3ccc4c(c3)OCCO4)ncc2F)cc1 [R945171, N4-(4-Aminocarbonylmethyleneoxyphenyl)-N2-(3,4-ethylenedioxyphenyl)-5-fluoro-2,4-pyrimidinediamine]	> 10 µM	1.33 µM
CNC(=O)COc1cccc(Nc2ncc(F)c(Nc3cccc(NC)c3)n2)c1 [R950267, N4-(3-N-Methylaminophenyl)-5-fluoro-N2-[3-(N-methylamino)carbonylmethyleneoxyphenyl]-2,4-pyrimidinediamine]	> 10 µM	0.18 µM
OCCNc1cccc(Nc2ncc(F)c(Nc3ccc4c(c3)OCCO4)n2)c1 [R950208, N4-(3,4-Ethylenedioxyphenyl)-5-fluoro-N2-[3-(hydroxyethyleneamino)phenyl]-2,4-pyrimidinediamine]	> 10 µM	0.267 µM
CCOC(=O)C(C)(C)c1ccc(Nc2ncc(F)c(Nc3cccc(O)c3)n2)cc1 [R935152, N2-[4-[(1-Ethoxycarbonyl-1-methyl)ethyl]phenyl]-5-fluoro-N4-(3-hydroxyphenyl)-2,4-pyrimidinediamine]	9.32 µM	0.505 µM
CCOc1ccc(Nc2nc(Nc3ccc4c(c3)OCCO4)ncc2F)cc1 [R920670, N4-(4-ethyloxyphenyl)-N2-(3,4-ethylenedioxyphenyl)-5-fluoro-2,4-pyrimidinediamine]	> 10 µM	2.18 µM
COC(=O)Cn1ncc2cc(Nc3nc(Nc4cccc(O)c4)ncc3F)ccc21 [R935250, 5-Fluoro-N2-(3-hydroxyphenyl)-N4-[1-(methoxycarbonyl)methyl-indazoline-5-yl]-2,4-pyrimidinediamine]	> 10 µM	1.1 µM
Nc1cccc(Nc2nc(Nc3cccc(NC(=O)CCC(N)C(=O)O)c3)ncc2F)c1 (racemic) [R950255, (±)-N4-(3-Aminophenyl)-5-fluoro-N2-[3-(3-carboxy-3-amino)propylenecarbonylaminophenyl]-2,4-pyrimidinediamine]	> 10 µM	10 µM
CNC(=O)COc1cccc(Nc2ncc(F)c(Nc3ccc(OC)c(C(=O)OC)c3)n2)c1 [R940300, 5-Fluoro-N2-[3-(methylaminocarbonylmethyleneoxy)phenyl]-N4-(3-methyloxycarbonyl-4-methoxyphenyl)-2,4-pyrimidinediamine]	> 10 µM	10 µM
Cc1nc(COc2cccc(Nc3nc(Nc4ccc5c(c4)OCCO5)ncc3F)c2)no1 [R945137, N2-(3,4-Ethylenedioxyphenyl)-5-fluoro-N4-[3-(5-methyl-1,2,4-oxadiazol-3-yl)methyleneoxyphenyl]-2,4-pyrimidinediamine]	> 10 µM	1.65 µM
CC(C)(C)c1cccc(Nc2nc(Nc3cccc(OCC(=O)NC(CO)CO)c3)ncc2F)c1 [R940296, N4-(3-tert-Butylpheny)-N2-[3-(N-1,3-dihydroxypropyl-2-amino)carbonylmethyleneoxyphenyl]-5-fluoro-2,4-pyrimidinediamine]	> 10 µM	0.41 µM
Cc1nc(COc2cccc(Nc3ncc(F)c(Nc4ccc5oc(C(=O)O)cc5c4)n3)c2)no1 [R945134, N4-(2-Carboxybenzofuran-5-yl)-5-fluoro-N2-[3-(5-methyl-1,2,4-oxadiazol-3-yl)methyleneoxyphenyl]-2,4-pyrimidinediamine]	> 10 µM	> 10 µM
Fc1cnc(Cl)nc1Nc1ccc2c(c1)CNCC2 [Compound R926912]	> 10 µM	> 10 µM
OCCn1ncc2ccc(Nc3ncc(F)c(Nc4ccc5c(c4)OCCO5)n3)cc21 [R935248, N4-(3,4-Ethylenedioxyphenyl)-5-fluoro-N2-[1-(2-hydroxyethyl)indazoline-6-yl]-2,4-pyrimidinediamine]	> 10 µM	1.1 µM
CNC(=O)COc1cc(Nc2ncc(F)c(Nc3ccc4c(c3)OCCO4)n2)ccc1OC [R926828, N4-(3,4-Ethylenedioxyphenyl)-5-fluoro-N2-[4-methoxy-3-(N-methylamino)carbonylmethyleneoxyphenyl]-2,4-pyrimidinediamine]	> 10 µM	0.306 µM
Cc1noc(COc2cccc(Nc3nc(Nc4cccc(O)c4)ncc3F)c2)n1 [R945130, 5-Fluoro-N2-(3-hydroxyphenyl)-N4-[3-(3-methyl-1,2,4-oxadiazol-5-yl)methyleneoxyphenyl]-2,4-pyrimidinediamine]	> 10 µM	1.87 µM
